Measured values published in patent publication US10857105B2, “Compounds and compositions for intracellular delivery of therapeutic agents” (ModernaTX, Inc., priority 2017, dated 2020).

Key:
[1] = Particle size and polydispersity index of nanoparticle compositions (Zetasizer Nano ZS); format: physicochemical
Method: A Zetasizer Nano ZS (Malvern Instruments Ltd, Malvern, Worcestershire, UK) can be used to determine the particle size, the polydispersity index (PDI) and the zeta potential of the nanoparticle compositions in 1×PBS in determining particle size and 15 mM PBS in determining zeta potential.
(§1) Initial studies were performed to compare the delivery efficiency of nanoparticle compositions including various compounds according to Formula (I), (IA), (IB), (II), (IIa), (IIb), (IIc), (IId), (IIe), (IIf), (IIg), or (III). The cationic lipid MC3 is a current standard in the art. Accordingly, the standard MC3 formulation including about 50 mol % MC3, about 10 mol % DSPC, about 38.5 mol % cholesterol, and about 1.5 mol % PEG-DMG was used as a basis for this study. Nanoparticle compositions including DSPC as a phospholipid, cholesterol as a structural lipid, PEG-DMG as a PEG lipid, an RNA, and a compound according to Formula (I), (IA), (IB), (II), (IIa), (IIb), (IIc), (IId), (IIe), (IIf), (IIg), or (III) selected from Compounds 1-159, 168-170, and 173-175 were prepared according to or via methods similar to those described in Examples 1 and 2. The ratios of the lipids were 50:10:38.5:1.5 mol % for the lipid according to Formula (I), (IA), (IB), (II), (IIa), (IIb), (IIc), (IId), (IIe), (IIf), (IIg), or (III):DSPC:cholesterol:PEG-DMG. The RNA used was an mRNA encoding luciferase (Luc) or hEPO, wherein each uridine was replaced N1-methyl pseudouridine. Tables 1A-1E summarize the content and characteristics of the formulations.

[2] = Encapsulation efficiency of RNA in nanoparticle compositions (RIBOGREEN assay); format: physicochemical
Method: For nanoparticle compositions including an RNA, a QUANT-IT™ RIBOGREEN® RNA assay (Invitrogen Corporation Carlsbad, Calif.) can be used to evaluate the encapsulation of an RNA by the nanoparticle composition. The samples are diluted to a concentration of approximately 5 μg/mL, in a TE buffer solution (10 mM Tris-HCl, 1 mM EDTA, pH 7.5). 50 μL of the diluted samples are transferred to a polystyrene 96 well plate and either 50 μL of TE buffer or 50 μL of a 2% Triton X-100 solution is added to the wells. The plate is incubated at a temperature of 37° C. for 15 minutes. The RIBOGREEN® reagent is diluted 1:100 in TE buffer, and 100 μL of this solution is added to each well. The fluorescence intensity can be measured using a fluorescence plate reader (Wallac Victor 1420 Multilabel Counter; Perkin Elmer, Waltham, Mass.) at an excitation wavelength of, for example, about 480 nm and an emission wavelength of, for example, about 520 nm. The fluorescence values of the reagent blank are subtracted from that of each of the samples and the percentage of free RNA is determined by dividing the fluorescence intensity of the intact sample (without addition of Triton X-100) by the fluorescence value of the disrupted sample (caused by the addition of Triton X-100).
as §1

[3] = test system: modified luciferase; experiment: Luciferase expression in liver, lung, spleen and femur 6 hours after intravenous administration to mice; format: in vivo; conditions: 6 hours after intravenous 0.5 mpk, mice
Method: The efficacy of the nanoparticle compositions presented in Table 1A was further evaluated by measuring the expression of modified luciferase in the liver, lung, spleen, and femur upon administration of a given composition. Formulations were administered intravenously to mice (n=3) at a dosage of 0.5 mpk and bioluminescence measured after 6 hours. The standard MC3 formulation and a PBS control were also tested. […] Flux in the liver was lowest for compositions including Compounds 58, 59, 137, and 141. Flux in the spleen was highest for compositions including Compounds 4, 7, 33, 34, 48, 53, 108, 129, 130, and 148, and lowest for compositions including Compounds 9, 59, 124, and 141.

[4] = Table 1A, lipid:DSPC:cholesterol:PEG-DMG 50:10:38.5:1.5 mol %
[5] = Table 1B, formulated with hEPO mRNA

SMILES | Size [1, 4] [nm] | EE [2, 4] [%] | Total Flux, Liver [3] | Total Flux, Lung [3] | Total Flux, Spleen [3] | Size [1, 5] [nm] | EE [2, 5] [%]
CCCCCCCCCOC(=O)CCCCCCCN(CCO)CCCCCCCC(=O)OC1CCC(CCCCC)CC1 (stereo not drawn) [Compound 79, Nonyl 8-((2-hydroxyethyl)(8-oxo-8-((4-pentylcyclohexyl)oxy)octyl)amino)octanoate] | 93.7 | 89.1 | 3.15E+06 | 6.13E+04 | 6.45E+05 | – | –
CCCCCCCCC(CCCCCCCC)OC(=O)CCCCCCCN(CCO)CCCCCCCCC1CC1CCCCCCCC (stereo not drawn) [Compound 47, heptadecan-9-yl 8-((2-hydroxyethyl)(8-(2-octylyclopropyl)octyl)amino)octanoate] | 80.6 | 96.40 | 4.86E+09 | 8.71E+06 | 8.33E+07 | – | –
CCCCCCCCC(CCCCCCCC)OC(=O)CCCCCCCN(CCO)CCCCCC(=O)OC(C)CCCCCCCCOC(C)=O (stereo not drawn) [Compound 235, Heptadecan-9-yl 8-((6-((10-acetoxydecan-2-yl)oxy)-6-oxohexyl)(2-hydroxyethyl)amino)octanoate] | – | – | – | – | – | 228 | 40.9
CCCCCCCCCOC(=O)CCCCCCCN(CCO)CCCCCCCCCOP(=O)(OCCCCCCCCC)OCCCCCCCCC [Compound 127, Nonyl 8-((9-((bis(nonyloxy)phosphoryl)oxy)nonyl)(2-hydroxyethyl)amino)octanoate] | 110.4 | 89.5 | 1.94E+08 | 5.26E+06 | 3.21E+08 | – | –
CCCCCCCCC(CCCCCCCC)OC(=O)CCCCCCCN(CCO)CCCC(=O)OCCCCC [Compound 52, heptadecan-9-yl 8-((2-hydroxyethyl)(4-oxo-4-(pentyloxy)butyl)amino) octanoate] | 130.5 | 93.25 | 5.86E+08 | 2.80E+06 | 8.30E+07 | – | –
CCCCCCCCCN(CCCCCCCC(=O)OC(CCCCCCCC)CCCCCCCC)CCCn1ccnc1 [Compound 8, Heptadecan-9-yl 8-((3-(1H-imidazol-1-yl)propyl)(nonyl)amino)octanoate] | 121.0 | 95.8 | 7.87E+08 | 4.06E+06 | 1.51E+08 | – | –
CCCCCCCCCOC(=O)CCCCCCCN(CCCCCCCC(=O)OC(CCCCCCCC)CCCCCCCC)CCCC(N)=O [Compound 243, Heptadecan-9-yl 8-((4-amino-4-oxobutyl)(8-(nonyloxy)-8-oxooctyl)amino)octanoate] | – | – | – | – | – | 90.6 | 99.4
CCCCCCCCCOC(=O)CCCCCCCN(CCCCCCCC(=O)OC(CCCCCCCC)CCCCCCCC)CCC(=O)O [Compound 125, 3-((8-(Heptadecan-9-yloxy)-8-oxooctyl)(8-(nonyloxy)-8-oxooctyl)amino)propanoic acid] | 90.9 | 79.6 | – | – | – | – | –
CCCCCCCCCOC(=O)CCCCCCCN(CCCCCCCC(=O)OC(CCCCCCCC)CCCCCCCC)CCCOC(=O)NC [Compound 175, Heptadecan-9-yl 8-((3-((methylcarbamoyl)oxy)propyl)(8-(nonyloxy)-8-oxooctyl)amino)octanoate] | 65.7 | 94.8 | – | – | – | – | –
CCCCCCCC/C=C\CCCCCCCCN(CCO)CCCCCCCC(=O)OC(CCCCCCCC)CCCCCCCC [Compound 31, heptadecan-9-yl (Z)-8-((2-hydroxyethyl)(octadec-9-en-1-yl)amino) octanoate] | 73.9 | 95.11 | 5.17E+09 | 7.55E+06 | 9.42E+07 | – | –
CCCCCCCCCOC(=O)CCCCCCCN(CCC#N)CCCCCCCC(=O)OC(CCCCCCCC)CCCCCCCC [Compound 21, Heptadecan-9-yl 8-((2-cyanoethyl)(8-(nonyloxy)-8-oxooctyl)amino) octanoate] | 53.5 | −15.1 | – | – | – | – | –
CCCCCCCCCOC(=O)CCCCCCCN(CCO)CCCCCCCC(=O)OC(CCC)CCC [Compound 58, heptan-4-yl 8-((2-hydroxyethyl)(8-(nonyloxy)-8-oxooctyl)amino) octanoate] | 130.8 | 92.54 | 8.71E+04 | 1.21E+04 | 2.38E+05 | – | –
CCCCCCCCCOC(=O)CCCCCCCN(CCO)CCCCCCCC(=O)OC(CCCCCC)CCCCCC [Compound 56, nonyl 8-((2-hydroxyethyl)(8-oxo-8-(tridecan-7-yloxy)octyl)amino) octanoate] | 112.1 | 95.18 | 1.04E+09 | 4.62E+06 | 1.98E+08 | – | –

Second part, led by results:

Size [1, 4] [nm] | EE [2, 4] [%] | SMILES | Total Flux, Liver [3] | Total Flux, Lung [3] | Total Flux, Spleen [3] | Size [1, 5] [nm] | EE [2, 5] [%]
112.9 | 96.71 | CCCCCCCCC(CCCCCCCC)OC(=O)CCCCCCCN(CCO)CCCC(=O)OCCCCCCC [Compound 54, heptadecan-9-yl 8-((4-(heptyloxy)-4-oxobutyl)(2-hydroxyethyl)amino) octanoate] | 5.57E+09 | 1.12E+07 | 1.64E+08 | – | –
75.5 | 92.89 | CCCCCCCCCOC(=O)CCCCCCCN(CCCCCCCC(=O)OC(CCCCCCCC)CCCCCCCC)CCCN(C)S(C)(=O)=O [Compound 173, Heptadecan-9-yl 8-((3-(N-methylmethylsulfonamido)propyl)(8-(nonyloxy)-8-oxooctyl)amino)octanoate] | – | – | – | – | –
71.6 | 94.7 | CCCCCCCCCOC(=O)CCCCCCCN(CCCCCCCC(=O)OC(CCCCCCCC)CCCCCCCC)CCCn1ccnn1 [Compound 179, Heptadecan-9-yl 8-((3-(1H-1,2,3-triazol-1-yl)propyl)(8-(nonyloxy)-8-oxooctyl)amino)octanoate] | – | – | – | – | –
128.4 | 94.33 | CCCCCCCCCOC(=O)CCCCCCCN(CCO)CCCCCCCC(=O)OC(CCCC)CCCC [Compound 57, nonan-5-yl 8-((2-hydroxyethyl)(8-(nonyloxy)-8-oxooctyl)amino) octanoate] | 9.36E+05 | 3.18E+04 | 2.47E+06 | – | –
133.8 | 92.52 | CCCCCCCCCOC(=O)CCCCCCCN(CCO)CCCCCCCC(=O)OC(CCC)CCCCCCCC (stereo not drawn) [Compound 34, dodecan-4-yl 8-((2-hydroxyethyl)(8-(nonyloxy)-8-oxooctyl)amino) octanoate] | 2.08E+09 | 9.49E+06 | 2.40E+08 | – | –
– | 94.44 | CCCCCCCCCOC(=O)CCCCCCCN(CCO)CCCCCCCC(=O)OC(CC)CC [Compound 59, nonyl 8-((2-hydroxyethyl)(8-oxo-8-(pentan-3-yloxy)octyl)amino) octanoate] | 2.87E+05 | 4.41E+04 | 9.68E+04 | – | –
105.6 | 94.87 | CCCCCCCCCOC(=O)CCCCCCCN(CCO)CCCCCCCC(=O)OC(CCCCCC)CCCCCCCC (stereo not drawn) [Compound 32, nonyl 8-((2-hydroxyethyl)(8-oxo-8-(pentadecan-7-yloxy)octyl)amino) octanoate] | 8.52E+09 | 1.16E+07 | 1.70E+08 | – | –
